# Columns and labels:
# [1] = Biodistribution in kidney of TA2 mouse bearing MA891 xenograft after 4 hrs; format: ADME, organism-based; conditions: read-out: Drug uptake
# [2] = Biodistribution in heart of TA2 mouse bearing MA891 xenograft after 4 hrs; format: ADME, organism-based; conditions: read-out: Drug uptake
# [3] = Biodistribution in blood of TA2 mouse bearing MA891 xenograft after 30 mins; format: ADME, organism-based; conditions: read-out: Drug uptake
# [4] = Biodistribution in brain of TA2 mouse bearing MA891 xenograft after 30 mins; format: ADME, organism-based; conditions: read-out: Drug uptake
# [5] = Ratio of uptake in tumor to blood of TA2 mouse bearing MA891 xenograft after 2 hrs; format: ADME
# [6] = Biodistribution in liver of TA2 mouse bearing MA891 xenograft after 2 hrs; format: ADME, organism-based; conditions: read-out: Drug uptake
# [7] = Biodistribution in intestine of TA2 mouse bearing MA891 xenograft after 30 mins; format: ADME, organism-based; conditions: read-out: Drug uptake
# [8] = Biodistribution in brain of TA2 mouse bearing MA891 xenograft after 4 hrs; format: ADME, organism-based; conditions: read-out: Drug uptake
# [9] = Biodistribution in spleen of TA2 mouse bearing MA891 xenograft after 30 mins; format: ADME, organism-based; conditions: read-out: Drug uptake
# [10] = Biodistribution in liver of TA2 mouse bearing MA891 xenograft after 30 mins; format: ADME, organism-based; conditions: read-out: Drug uptake
# [11] = Biodistribution in heart of TA2 mouse bearing MA891 xenograft after 30 mins; format: ADME, organism-based; conditions: read-out: Drug uptake
# [12] = Biodistribution in muscle of TA2 mouse bearing MA891 xenograft after 30 mins; format: ADME, organism-based, Muscle tissue; conditions: read-out: Drug uptake
# [13] = Biodistribution in stomach of TA2 mouse bearing MA891 xenograft after 2 hrs; format: ADME, organism-based; conditions: read-out: Drug uptake
# [14] = Ratio of uptake in tumor to muscle of TA2 mouse bearing MA891 xenograft after 4 hrs; format: ADME; conditions: in vivo
# [15] = Biodistribution in intestine of TA2 mouse bearing MA891 xenograft after 4 hrs; format: ADME, organism-based; conditions: read-out: Drug uptake
# [16] = Biodistribution in muscle of TA2 mouse bearing MA891 xenograft after 2 hrs; format: ADME, organism-based, Muscle tissue; conditions: read-out: Drug uptake
# [17] = Biodistribution in tumor of TA2 mouse bearing MA891 xenograft after 30 mins; format: ADME, organism-based; conditions: read-out: Drug uptake
# [18] = Biodistribution in stomach of TA2 mouse bearing MA891 xenograft after 4 hrs; format: ADME, organism-based; conditions: read-out: Drug uptake
# [19] = Biodistribution in lung of TA2 mouse bearing MA891 xenograft after 4 hrs; format: ADME, organism-based; conditions: read-out: Drug uptake
# [20] = Biodistribution in tumor of TA2 mouse bearing MA891 xenograft after 4 hrs; format: ADME, organism-based; conditions: read-out: Drug uptake
# [21] = Biodistribution in lung of TA2 mouse bearing MA891 xenograft after 2 hrs; format: ADME, organism-based; conditions: read-out: Drug uptake
# [22] = Biodistribution in liver of TA2 mouse bearing MA891 xenograft after 4 hrs; format: ADME, organism-based; conditions: read-out: Drug uptake
# [23] = Ratio of uptake in tumor to muscle of TA2 mouse bearing MA891 xenograft after 30 mins; format: ADME; conditions: in vivo, 0.5 h
# [24] = Biodistribution in stomach of TA2 mouse bearing MA891 xenograft after 30 mins; format: ADME, organism-based; conditions: read-out: Drug uptake
# [25] = Biodistribution in muscle of TA2 mouse bearing MA891 xenograft after 4 hrs; format: ADME, organism-based, Muscle tissue; conditions: read-out: Drug uptake
# [26] = Biodistribution in intestine of TA2 mouse bearing MA891 xenograft after 2 hrs; format: ADME, organism-based; conditions: read-out: Drug uptake
# [27] = Ratio of uptake in tumor to […] of TA2 mouse bearing MA891 xenograft after 30 mins; format: ADME; conditions: in vivo, 0.5 h
# [28] = Partition coefficient, log P of the compound; format: physicochemical; conditions: octanol/water
# [29] = Ratio of uptake in tumor to muscle of TA2 mouse bearing MA891 xenograft after 2 hrs; format: ADME; conditions: in vivo
# [30] = Biodistribution in kidney of TA2 mouse bearing MA891 xenograft after 2 hrs; format: ADME, organism-based; conditions: read-out: Drug uptake
# [31] = Biodistribution in blood of TA2 mouse bearing MA891 xenograft after 4 hrs; format: ADME, organism-based; conditions: read-out: Drug uptake
# [32] = Biodistribution in lung of TA2 mouse bearing MA891 xenograft after 30 mins; format: ADME, organism-based; conditions: read-out: Drug uptake
# [33] = Biodistribution in blood of TA2 mouse bearing MA891 xenograft after 2 hrs; format: ADME, organism-based; conditions: read-out: Drug uptake
# [34] = Biodistribution in tumor of TA2 mouse bearing MA891 xenograft after 2 hrs; format: ADME, organism-based; conditions: read-out: Drug uptake
# [35] = Biodistribution in spleen of TA2 mouse bearing MA891 xenograft after 2 hrs; format: ADME, organism-based; conditions: read-out: Drug uptake
# [36] = Biodistribution in spleen of TA2 mouse bearing MA891 xenograft after 4 hrs; format: ADME, organism-based; conditions: read-out: Drug uptake
# [37] = Biodistribution in brain of TA2 mouse bearing MA891 xenograft after 2 hrs; format: ADME, organism-based; conditions: read-out: Drug uptake
# [38] = Biodistribution in heart of TA2 mouse bearing MA891 xenograft after 2 hrs; format: ADME, organism-based; conditions: read-out: Drug uptake
# [39] = Biodistribution in kidney of TA2 mouse bearing MA891 xenograft after 30 mins; format: ADME, organism-based; conditions: read-out: Drug uptake
# [40] = Ratio of uptake in tumor to […] of TA2 mouse bearing MA891 xenograft after 4 hrs; format: ADME; conditions: in vivo
compound,measurement,setting,value
CSCC(=O)NC1[C@H](O)O[C@H](CO)[C@@H](O)[C@@H]1O (stereo not given in full),tissue uptake at 4 h,[1],13.2 %ID/g
same,tissue uptake at 4 h,[2],0.38 %ID/g
same,tissue uptake at 0.5 h,[3],3.32 %ID/g
same,tissue uptake at 0.5 h,[4],0.11 %ID/g
same,Kp at 2 h,[5],0.59
same,tissue uptake at 2 h,[6],4.75 %ID/g
same,tissue uptake at 0.5 h,[7],2.24 %ID/g
same,tissue uptake at 4 h,[8],0.04 %ID/g
same,tissue uptake at 0.5 h,[9],1.81 %ID/g
same,tissue uptake at 0.5 h,[10],5.9 %ID/g
same,tissue uptake at 0.5 h,[11],0.9 %ID/g
same,tissue uptake at 0.5 h,[12],0.51 %ID/g
same,tissue uptake at 2 h,[13],3.17 %ID/g
same,Ratio,[14],3.29
same,tissue uptake at 4 h,[15],1.29 %ID/g
same,tissue uptake at 2 h,[16],0.45 %ID/g
same,tissue uptake at 0.5 h,[17],1.53 %ID/g
same,tissue uptake at 4 h,[18],1.41 %ID/g
same,tissue uptake at 4 h,[19],0.98 %ID/g
same,tissue uptake at 4 h,[20],1.06 %ID/g
same,tissue uptake at 2 h,[21],1.48 %ID/g
same,tissue uptake at 4 h,[22],4.18 %ID/g
same,Ratio,[23],3.2
same,tissue uptake at 0.5 h,[24],3.69 %ID/g
same,tissue uptake at 4 h,[25],0.33 %ID/g
same,tissue uptake at 2 h,[26],4.07 %ID/g
same,Ratio,[27],0.47
same,logP,[28],-2.92
same,Ratio,[29],2.85
same,tissue uptake at 2 h,[30],10.8 %ID/g
same,tissue uptake at 4 h,[31],1.29 %ID/g
same,tissue uptake at 0.5 h,[32],2.73 %ID/g
same,tissue uptake at 2 h,[33],2.22 %ID/g
same,tissue uptake at 2 h,[34],1.25 %ID/g
same,tissue uptake at 2 h,[35],1.36 %ID/g
same,tissue uptake at 4 h,[36],1.6 %ID/g
same,tissue uptake at 2 h,[37],0.07 %ID/g
same,tissue uptake at 2 h,[38],0.57 %ID/g
same,tissue uptake at 0.5 h,[39],8.8 %ID/g
same,Ratio,[40],0.82

# Source: ChEMBL document CHEMBL1139682, “Synthesis and biological evaluation of technetium-99m-labeled deoxyglucose derivatives as imaging agents for tumor” (Bioorg Med Chem Lett, 2006)
